The text below walks through data of US9617276B2, “Compounds and methods for treating AIDS and HIV infections” (priority 2009, dated 2017).

Structures are written as SMILES. pIC50, pKi: −log10 of the molar value.

One assay deals with HIV-1. Nature of the assay: antiviral assay (IC50). The format is cell-based. The conditions noted are these: Human immunodeficiency virus 1, Table 3, E and Z isomers; read-out: IC50. How it is done: (§1) The inhibitory potencies of acyclic and cyclic inhibitors were measured by the assay protocol of Toth and Marshall (Toth, M. V.; Marshall, G. R. A simple, continuous fluorometric assay for HIV protease. Int. J. Pep. Protien Res. 1990, 36, 544-55).
One may read the pIC50 as the negative decadic logarithm of the IC50, by convention in mol/L. `COc1ccc2c(c1)OCCC=CCCCCN(CC(O)C(Cc1ccccc1)NC(=O)OC1COC3OCCC13)S2(=O)=O` (centres unmarked) [Compound 14c-E]: the negative-log IC50 (pIC50) is over 8.00.

Still in this assay, the particulars now being: Table 4; read-out: IC50.
`C=CCCCCOc1cc(OC)ccc1S(=O)(=O)N(CC(C)CC=C)C[C@@H](O)[C@H](Cc1ccccc1)NC(=O)O[C@H]1CO[C@H]2OCC[C@H]21` (single isomer, unassigned) [Compound 19b]: the pIC50 was over 7.00.

Another assay has as its target T1, HIV-1 protease (Human immunodeficiency virus type 1 group M subtype B, UniProt P04585).
T1 construct: A simple, continuous fluorometric assay for HIV protease
In words: HIV protease enzyme inhibition, fluorometric assay of Toth and Marshall. The format is biochemical. Particulars: Table 1, acyclic compounds; read-out: Ki. The procedure:
as §1
For orientation: pKi means the Ki on a negative log10 scale, so that one unit is a factor of ten. Consider `C=CCCCCN(CC(O)C(Cc1ccccc1)NC(=O)OC1COC2OCCC12)S(=O)(=O)c1ccc(OC)cc1OCCC=C` (centres unmarked) [Compound 13c], for which the pKi was over 8.00. On the same count and under the same terms, the figure for `C=CCCCCN(CC(O)C(Cc1ccccc1)NC(=O)OC1COC2OCCC12)S(=O)(=O)c1ccc(OC)cc1OCC=C` (centres unmarked) [Compound 13d] is over 8.00; for `C=CCCOc1cc(OC)ccc1S(=O)(=O)N(CC=C)CC(O)C(Cc1ccccc1)NC(=O)OC1COC2OCCC12` (centres unmarked) [Compound 13g] it is over 9.00.

The same assay, now with this note: Table 2; read-out: Ki.
Consider `COc1ccc2c(c1)OCCC=CCN(CC(O)C(Cc1ccccc1)NC(=O)OC1COC3OCCC13)S2(=O)=O` (centres unmarked) [Compound 14g], for which the negative logarithm of the Ki (pKi) is over 9.00. Same read-out and setting: under `COc1ccc2c(c1)OCC=CCN(CC(O)C(Cc1ccccc1)NC(=O)OC1COC3OCCC13)S2(=O)=O` (centres unmarked) [Compound 14h] stands over 8.00.

The same assay, now with this note: Table 4; read-out: Ki.
With `C=CCCCCOc1cc(OC)ccc1S(=O)(=O)N(CC(C)CC=C)C[C@@H](O)[C@H](Cc1ccccc1)NC(=O)O[C@H]1CO[C@H]2OCC[C@H]21` (single isomer, unassigned) [Compound 19b], the pKi is over 8.00.

The assay is the same for the next values; noted with them: Table 5; read-out: Ki.
Regarding `COc1ccc2c(c1)OCCCCCN1CCC[C@@H]1CN(C[C@@H](O)[C@H](Cc1ccccc1)NC(=O)O[C@H]1CO[C@H]3OCC[C@H]31)S2(=O)=O` [Compound 00610A], the pKi is under 7.00.

As for `C=CCN1CCCC1CN(C[C@@H](O)[C@H](Cc1ccccc1)NC(=O)O[C@H]1CO[C@H]2OCC[C@H]21)S(=O)(=O)c1ccc(OC)cc1` (some centres unmarked) [Compound 0649A], the pKi is over 8.00. On the same count and under the same terms, the figure for `C=CCOc1cc(OC)ccc1S(=O)(=O)N(CC1CCCN1CC=C)C[C@@H](O)[C@H](Cc1ccccc1)NC(=O)O[C@H]1CO[C@H]2OCC[C@H]21` (some centres unmarked) [Compound 0659A] is under 7.00; for `COc1ccc2c(c1)OCC/C=C/CN1CCC[C@H]1CN(C[C@@H](O)[C@H](Cc1ccccc1)NC(=O)O[C@H]1CO[C@H]3OCC[C@H]31)S2(=O)=O` [Compound 00810A] it is under 7.00; for `COc1ccc2c(c1)OCC/C=C/CN1C(=O)CC[C@@H]1CN(C[C@@H](O)[C@H](Cc1ccccc1)NC(=O)OC(C)(C)C)S2(=O)=O` [Compound 00910A] it is under 7.00.

Turning to `COc1ccc2c(c1)OCC/C=C\CN1C(=O)CC[C@@H]1CN(C[C@@H](O)[C@H](Cc1ccccc1)NC(=O)OC(C)(C)C)S2(=O)=O` [Compound 01010A], the pKi is under 7.00. On the same count and under the same terms, the figure for `C=CCN1C(=O)CC[C@@H]1CN(C[C@@H](O)[C@H](Cc1ccccc1)NC(=O)O[C@H]1CO[C@H]2OCC[C@H]21)S(=O)(=O)c1ccc(OC)cc1` [Compound 01110A] is over 9.00; for `COc1ccc2c(c1)OCC/C=C/CN1C(=O)CC[C@@H]1CN(C[C@@H](O)[C@H](Cc1ccccc1)NC(=O)O[C@H]1CO[C@H]3OCC[C@H]31)S2(=O)=O` [Compound 01210A] it is over 9.00. Still for that read-out and setting: under `COc1ccc2c(c1)OCC/C=C\CN1C(=O)CC[C@@H]1CN(C[C@@H](O)[C@H](Cc1ccccc1)NC(=O)O[C@H]1CO[C@H]3OCC[C@H]31)S2(=O)=O` [Compound 01310A] stands over 7.00.

On to `COc1ccc2c(c1)OCCC=CCN1C(=O)CC[C@H]1CN(C[C@@H](O)[C@H](Cc1ccccc1)NC(=O)O[C@H]1CO[C@H]3OCC[C@H]31)S2(=O)=O` [Compound 01410A], for which the pKi is under 7.00.

Turning to `COc1ccc2c(c1)OCCCCCN1C(=O)CC[C@H]1CN(C[C@@H](O)[C@H](Cc1ccccc1)NC(=O)O[C@H]1CO[C@H]3OCC[C@H]31)S2(=O)=O` [Compound 02110A], the pKi is over 7.00. The same measure, in the same setting: the figure for `COc1ccc2c(c1)OCCCCCN1C(=O)CC[C@@H]1CN(C[C@@H](O)[C@H](Cc1ccccc1)NC(=O)O[C@H]1CO[C@H]3OCC[C@H]31)S2(=O)=O` [Compound 02210A] is over 9.00.
